The values that follow come from patent US10577362B2, “Substituted 2, 4-diamino-quinoline derivatives for use in the treatment of proliferative diseases” (GENOSCIENCE PHARMA, priority 2016, dated 2020).

Test [1] deals with HCT-116 (colorectal carcinoma) cell line. The experiment in a line: CellTiter-Glo luminescent cell viability assay, HCT-116. Conditions: Homo sapiens; for viability at 4 µM: HCT-116, compound at 4 μM; for viability at 4 µM / viability at 10 µM: 72 h; for viability at 10 µM: HCT-116, compound at 10 μM; for EC50: HCT-116 cell line, 72 h incubation, CellTiter-Glo, read-out: EC50, growth inhibition of HCT-116. The format is cell-based, human. In a few lines:
(§1)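 Luminescent signal, normalised to diluent-treated cultures, defines % viability; EC50 is the concentration lowering it to 50%. Cells had been exposed to compound for 72 h at 37 °C in medium with 10% FBS, at a constant H2O or DMSO percentage.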

In test [2] the test system is MOLM-14 (acute myeloid leukemia) cell line. In words: CellTiter-Glo luminescent cell viability assay, MOLM-14. Conditions: Homo sapiens; for viability at 4 µM: MOLM-14, compound at 4 μM; for viability at 4 µM / viability at 10 µM: 72 h; for viability at 10 µM: MOLM-14, compound at 10 μM; for EC50: MOLM-14 cell line, 72 h incubation, CellTiter-Glo, read-out: EC50, growth inhibition of MOLM-14. The format is cell-based, human. In a few lines: (§2)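 EC50 is the concentration cutting CellTiter-Glo luminescence to half that of H2O- or DMSO-treated controls after 72 h compound exposure, with each point in at least duplicate. HepG2, Huh7 and PANC-1 were seeded the night before; MOLM-14 1 h prior; all cultured with 10% FBS, 37 °C, 5% CO2.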

For test [3], the system named is HepG2 (hepatocellular carcinoma) cell line. In words: CellTiter-Glo luminescent cell viability assay, HepG2. It counts as cell-based, human. Particulars: Homo sapiens; for viability at 4 µM / viability at 10 µM: HepG2, HepG, 72 h; for viability at 4 µM: compound at 4 μM; for viability at 10 µM: compound at 10 μM; for EC50: HepG2 cell line, 72 h incubation, CellTiter-Glo, read-out: EC50, growth inhibition of HepG2. In a few lines:
as §2

Test [4] concerns PANC-1 (prancreatic carcinoma) cell line. The experiment in a line: CellTiter-Glo luminescent cell viability assay, PANC-1. It counts as cell-based. Conditions: Homo sapiens; for viability at 4 µM: PANC-1, 4 μM; for viability at 4 µM / viability at 10 µM: 72 h, % of signal of diluent-treated cultures; for viability at 10 µM: PANC-1, 10 μM; for EC50: PANC-1 cell line, 72 h incubation, CellTiter-Glo, read-out: EC50 (growth inhibition assay of PANC-1 cell line). In a few lines:
as §2

The subject of test [5] is Huh7 (hepatocellular carcinoma) cell line. The experiment in a line: CellTiter-Glo luminescent cell viability assay, Huh7. Particulars: Homo sapiens, Huh-7; for viability at 4 µM: Huh7, compound at 4 μM; for viability at 4 µM / viability at 10 µM: 72 h; for viability at 10 µM: Huh7, compound at 10 μM; for EC50: Huh7 cell line, 72 h incubation, CellTiter-Glo, read-out: EC50, growth inhibition of Huh7. It counts as cell-based, human. An outline of the steps: as §2

Test [6] relates to 786-O (renal adenocarcinoma) cell line. The experiment in a line: CellTiter-Glo luminescent cell viability assay, 786-O. Conditions: Homo sapiens, 786-0; for EC50: 786-O cell line, 72 h incubation, CellTiter-Glo, read-out: EC50, growth inhibition of 786-O; for viability at 4 µM / viability at 10 µM: 786-O, 72 h; for viability at 4 µM: compound at 4 μM; for viability at 10 µM: compound at 10 μM. The format is cell-based, human. An outline of the steps:
as §1

For test [7], the system named is A375 (malignant melanoma) cell line. In words: CellTiter-Glo luminescent cell viability assay, A375. The format is cell-based, human. Particulars: Homo sapiens, A-375; for viability at 4 µM: A375, compound at 4 μM; for viability at 4 µM / viability at 10 µM: 72 h; for viability at 10 µM: A375, compound at 10 μM; for EC50: A375 cell line, 72 h incubation, CellTiter-Glo, read-out: EC50, growth inhibition of A375. In a few lines:
as §1

With `CC(C)NC1CCN(c2c(C#N)c(NCc3ccc(Cl)cc3)nc3ccccc23)CC1` [Compound 3174CN, 2-(4-chlorobenzylamino)-3-cyano-4-[4-(iso-propylamino)piperidin-1-yl]quinoline], the viability at 4 µM in test [1] amounted to 0.3%; in test [2], 24.4%; in test [3], 0.5%; in test [4], 84.8%; in test [5], 62.9%; in test [6], 3.6%. Further, the viability at 4 µM in test [7] was determined as 0.3%. Moreover, the viability at 10 µM is 0.1% in test [1]; 0.3% in test [2]; 0.2% in test [3]; 0.6% in test [4]; 0.3% in test [5]; 0.2% in test [6]. The viability at 10 µM in test [7] was determined as 0.2%. The half-maximal effective concentration (EC50) in test [1] fell in the range of 0.5 to 5 µM; in test [2], 0.5 to 5 µM; in test [3], 0.5 to 5 µM; in test [4], 5 to 10 µM; in test [5] it was 0.5 to 5 µM; in test [6], 0.5 to 5 µM. For the same compound, the concentration giving a half-maximal response (EC50) in test [7] fell in the range of 0.5 to 5 µM.

With `N#Cc1c(NCc2ccc(Cl)cc2)nc2ccccc2c1N1CCCC(N2CCOCC2)C1` (stereo not drawn) [Compound 178CN, 2-(4-chlorobenzylamino)-3-cyano-4-[3-(morpholino)piperidin-1-yl]quinoline], the viability at 4 µM was 95.7% in test [1]; 123% in test [2]; 101% in test [3]; 100% in test [4]; 95.3% in test [5]; 99.6% in test [6]. For the same compound, the viability at 4 µM in test [7] came to 95.5%. Also, the viability at 10 µM in test [1] was found to be 77%; in test [2] it was 106%; in test [3] it was 97.5%; in test [4], 96.6%; in test [5] it was 81.9%; in test [6], 88.9%. For the same compound, the viability at 10 µM in test [7] was determined as 90.2%.

Regarding `CC(C)(C)OC(=O)NC1CCCN(c2c(C#N)c(NCc3ccc(Cl)cc3)nc3ccccc23)C1` (stereo not drawn) [Compound 154CN], the viability at 4 µM in test [1] turned out to be 98.8%; in test [2] it was 112%; in test [3], 105%; in test [4] it was 107%; in test [5], 101%; in test [6] it was 94.1%. In addition, in test [7], the viability at 4 µM is 96.2%. Moreover, the viability at 10 µM in test [1] is 87.2%; in test [2], 113%; in test [3], 97.5%; in test [4] it was 99%; in test [5], 93.5%; in test [6], 82.3%. Also, the viability at 10 µM in test [7] is 88.5%.

For the compound `CN1CCN(C2CCN(c3c(C#N)c(NCc4ccc(Cl)cc4)nc4ccccc34)C2)CC1` (stereo not drawn) [Compound 3200CN, 2-(4-chloro-benzylamino)-3-cyano-4-[3-(4-methylpiper-azin-1-yl)pyrro-lidin-1-yl] quinoline], the viability at 4 µM in test [1] came out at 35.1%; in test [2] it was 97.1%; in test [3], 71.8%; in test [4] it was 90.2%; in test [5], 80.6%; in test [6], 41.7%. The viability at 4 µM in test [7] came out at 47.3%. Also, the viability at 10 µM turned out to be 0.4% in test [1]; 0.4% in test [2]; 0.3% in test [3]; 38.4% in test [4]; 0.4% in test [5]; 0.4% in test [6]. For the same compound, the viability at 10 µM in test [7] came out at 0.3%. Further, the concentration giving a half-maximal response (EC50) in test [1], in test [2], in test [3], in test [5], in test [6] and in test [7] was 5 to 10 µM each time.

With `CC(C)(C)NC1CCN(c2c(C#N)c(Nc3ccncn3)nc3ccccc23)CC1` [Compound 3282CN, 2-(pyrimidin-4-ylamino)-3-cyano-4-[4-(tert-butylamino)piperidin-1-yl]quinoline], the viability at 4 µM in test [1] came to 73.7%; in test [2], 93.3%; in test [3], 58.9%; in test [4], 102%; in test [5], 97.9%; in test [6], 102%. Besides, in test [7], the viability at 4 µM worked out at 88.6%. Moreover, the viability at 10 µM came to 39.8% in test [1]; 63.5% in test [2]; 40.3% in test [3]; 77.3% in test [4]; 75.4% in test [5]; 76.9% in test [6]. For the same compound, in test [7], the viability at 10 µM was 64.1%.

In the case of `CC(C)(C)NC1CCN(c2c(C#N)c(Nc3ccccn3)nc3ccccc23)CC1` [Compound 3278CN, 2-(pyridin-2-ylamino)-3-cyano-4-[4-(tert-butylamino)piperidin-1-yl]quinoline], the viability at 4 µM in test [1] is 85.7%; in test [2], 96.1%; in test [3], 87.1%; in test [4], 102%; in test [5] it was 95%; in test [6], 90.2%. In test [7], the viability at 4 µM came out at 90.6%. The viability at 10 µM amounted to 7.2% in test [1]; 88.6% in test [2]; 53.2% in test [3]; 84.2% in test [4]; 51% in test [5]; 68.2% in test [6]. In test [7], the viability at 10 µM was determined as 45.2%.

For `Cc1nnc(Nc2nc3ccccc3c(N3CCC(NC(C)(C)C)CC3)c2C#N)o1` [Compound 3272CN, 2-[(5-methyl-1,3,4-oxadiazol-2-yl)amino]-3-cyano-4-[4-(tert-butylamino)piperidin-1-yl]quinoline], the viability at 4 µM in test [1] is 13.9%; in test [2] it was 82.3%; in test [3] it was 97.7%; in test [4] it was 84.7%; in test [5], 92.6%; in test [6], 79%. The viability at 4 µM in test [7] came out at 62.3%. In addition, the viability at 10 µM in test [1] turned out to be 5%; in test [2] it was 20.7%; in test [3], 61.2%; in test [4] it was 65.3%; in test [5], 67.2%; in test [6] it was 48.9%. Further, the viability at 10 µM in test [7] came to 21.2%.

With `CC(C)(C)NC1CCN(c2c(C#N)c(Nc3ccccc3C(F)(F)F)nc3ccccc23)CC1` [Compound 3254CN, 2-(2-trifluoromethylphenylamino)-3-cyano-4-[4-(tert-butylamino)piperidin-1-yl]quinoline], the viability at 4 µM in test [1] came out at 0.3%; in test [2], 81.4%; in test [3], 6.9%; in test [4], 78.4%; in test [5] it was 34.2%; in test [6], 6.3%. The viability at 4 µM in test [7] turned out to be 0.4%. Also, the viability at 10 µM came to 0.2% in test [1]; 0.3% in test [2]; 0.2% in test [3]; 3% in test [4]; 0.3% in test [5]; 0.3% in test [6]. Besides, in test [7], the viability at 10 µM is 0.2%. Further, the EC50 was 0.5 to 5 µM in test [1]; 5 to 10 µM in test [2]; 0.5 to 5 µM in test [3]; 5 to 10 µM in test [4]; 0.5 to 5 µM in test [5]; 0.5 to 5 µM in test [6]. The concentration for a half-maximal effect (EC50) in test [7] fell in the range of 0.5 to 5 µM.
